Laboratory results taken from ChEMBL document CHEMBL1201862, “PubChem BioAssay data set” (2004).
Activity calls are given as the source filed them.

What was measured:
[1] = blockers of HIV-1 envelope-mediated cell-cell fusion – cherry-pick, dose response (AID 652057); format: functional, cell-based
[2] = off-target signal loss in HeLa-CEM21 co-culture – HeLa F-luc CTL cells, cherry-picked, counter-screen for HIV-1 Env fusion inhibitor project, dose response (AID 652040); format: functional, cell-based;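 further: potency for signal decrease marking cytotoxic or nonspecific inhibition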
[3] = blockers of HIV-1 ZM109 envelope-driven cell-cell fusion – HeLa effector, CEM target cells, luciferase, cherry-pick, dose response (AID 652058); format: functional, cell-based;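 further: luciferase signal from HIV-1 Env mediated cell-cell fusion of effector and target cells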
[4] = viability loss in CEM21 cells – cell-based, CellTiter-Glo luminescence, cherry-picked, cytotoxicity control for viral fusion inhibitor project, dose response (AID 652042); format: functional;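 further: potency for signal decrease meaning cytotoxicity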
Cytochrome P450 3A4 = Cytochrome P450 3A4 (Homo sapiens, UniProt P08684);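 further: CYP3A4 tested as one member of a cytochrome P450 panel screen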
Sequence of Cytochrome P450 3A4 (P08684 whole entry, the tested form may be a part): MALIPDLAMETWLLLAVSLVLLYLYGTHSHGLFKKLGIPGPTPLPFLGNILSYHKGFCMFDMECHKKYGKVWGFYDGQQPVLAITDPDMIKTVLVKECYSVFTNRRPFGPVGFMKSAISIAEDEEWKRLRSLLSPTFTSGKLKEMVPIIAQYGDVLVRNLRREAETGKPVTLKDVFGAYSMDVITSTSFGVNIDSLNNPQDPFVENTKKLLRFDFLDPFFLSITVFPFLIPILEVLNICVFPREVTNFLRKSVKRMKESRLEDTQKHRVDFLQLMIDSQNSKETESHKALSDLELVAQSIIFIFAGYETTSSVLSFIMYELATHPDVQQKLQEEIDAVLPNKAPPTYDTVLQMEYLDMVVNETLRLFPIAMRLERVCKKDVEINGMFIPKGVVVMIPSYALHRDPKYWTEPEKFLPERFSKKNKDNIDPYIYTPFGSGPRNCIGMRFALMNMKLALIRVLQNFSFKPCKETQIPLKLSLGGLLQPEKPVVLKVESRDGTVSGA

[5] = HIV-1 AD8 envelope cell-cell fusion blockers – cherry-pick, dose response (AID 652062); format: functional, cell-based;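 further: luciferase signal from cell-cell fusion driven by HIV-1 clade B AD8 Env; potency is for inhibitors of fusion seen as a drop in luminescence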
[6] = CMV-driven luciferase expression suppression in HEK293 – cell-based, luminescence, dry powder, counter-screen for Pax8 inhibitor project, dose response (AID 743020); format: functional
Beta-lactamase [7] = biological target: T1, Beta-lactamase (Pseudomonas aeruginosa, UniProt Q79MP6); assay: […] counterscreen for selective VIM-2 inhibitors: dose response biochemical high throughput screening assay to identify inhibitors of IMP-1 metallo-beta-lactamase.
T1 sequence (Q79MP6 whole entry): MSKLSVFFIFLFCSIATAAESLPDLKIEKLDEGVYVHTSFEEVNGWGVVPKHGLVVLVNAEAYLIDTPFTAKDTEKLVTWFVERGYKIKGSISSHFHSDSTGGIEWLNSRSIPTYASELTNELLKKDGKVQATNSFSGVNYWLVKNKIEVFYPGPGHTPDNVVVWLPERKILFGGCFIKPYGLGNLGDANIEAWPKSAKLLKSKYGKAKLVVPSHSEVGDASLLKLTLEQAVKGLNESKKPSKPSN

Beta-lactamase [8] = biological target: T1, Beta-lactamase; assay: inhibition of IMP-1 beta-lactamase activity – biochemical, epi-absorbance, selectivity assay for VIM-2 inhibitor project, dose response (AID 1920)
Beta-lactamase [9] = biological target: Beta-lactamase (Salmonella choleraesuis (strain SC-B67), UniProt Q5J463); assay: Epi-absorbance-based counterscreen for selective VIM-2 inhibitors: dose response biochemical high throughput screening assay to identify inhibitors of TEM-1 serine-beta-lactamase.
Sequence of Beta-lactamase (Salmonella choleraesuis (strain SC-B67), UniProt Q5J463) (Q5J463 whole entry): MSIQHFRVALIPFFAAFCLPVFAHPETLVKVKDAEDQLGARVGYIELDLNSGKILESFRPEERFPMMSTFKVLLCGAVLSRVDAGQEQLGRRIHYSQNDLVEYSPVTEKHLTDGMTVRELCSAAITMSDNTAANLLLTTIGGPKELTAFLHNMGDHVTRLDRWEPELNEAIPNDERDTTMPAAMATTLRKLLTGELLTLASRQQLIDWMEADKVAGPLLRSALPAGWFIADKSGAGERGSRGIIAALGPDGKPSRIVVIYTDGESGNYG

[10] = biological target: SWI/SNF-related matrix-associated actin-dependent regulator of chromatin subfamily A member 2 (Homo sapiens, UniProt P51531); assay: Luminescence-based cell-based high throughput dose response assay to identify activators of the function of SWI/SNF related, matrix associated, actin dependent regulator of chromatin, subfamily a, member 2 (SMARCA2, BRM).; format: functional
[11] = Counterscreen for activators of the function of SWI/SNF related, matrix associated, actin dependent regulator of chromatin, subfamily a, member 2 (SMARCA2, BRM): Luminescence-based cell-based high throughput dose response assay to identify non-selective compounds using the VP16 reporter assay.; format: functional
[12] = mouse fibroblast viability loss – cell-based, cherry-pick samples, set 2, cytotoxicity control for T. cruzi growth inhibitor project, dose response (AID 651817); format: functional; conditions: NIH3T3
Albumin = Albumin (Bos taurus, UniProt P02769); assay: Counterscreen for inhibitors of T-cell receptor (TCR)-CD3 interaction: Fluorescence-based biochemical high throughput dose response assay to identify inhibitors of T-cell receptor (TCR)-CD3 interaction using a TAMRA-labeled BSA probe.; format: functional
Sequence of Albumin (P02769 whole entry): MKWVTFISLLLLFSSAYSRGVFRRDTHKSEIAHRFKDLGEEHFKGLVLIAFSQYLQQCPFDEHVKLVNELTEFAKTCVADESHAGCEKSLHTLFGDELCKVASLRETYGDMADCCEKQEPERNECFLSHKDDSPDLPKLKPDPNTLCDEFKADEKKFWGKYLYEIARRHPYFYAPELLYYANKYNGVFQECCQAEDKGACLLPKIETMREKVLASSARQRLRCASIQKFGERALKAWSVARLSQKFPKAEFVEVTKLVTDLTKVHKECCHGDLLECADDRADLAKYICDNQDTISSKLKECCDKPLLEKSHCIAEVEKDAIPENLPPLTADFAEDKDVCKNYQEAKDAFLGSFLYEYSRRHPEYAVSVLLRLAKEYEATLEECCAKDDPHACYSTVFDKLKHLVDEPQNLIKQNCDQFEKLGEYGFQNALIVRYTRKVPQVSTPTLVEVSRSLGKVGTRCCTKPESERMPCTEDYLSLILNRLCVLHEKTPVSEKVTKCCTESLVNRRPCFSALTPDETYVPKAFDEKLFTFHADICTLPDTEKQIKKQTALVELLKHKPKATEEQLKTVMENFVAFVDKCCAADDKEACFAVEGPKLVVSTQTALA

[13] = biological target: T2, Histone-lysine N-methyltransferase NSD2 (Homo sapiens, UniProt O96028); format: biochemical
T2 sequence (O96028 whole entry): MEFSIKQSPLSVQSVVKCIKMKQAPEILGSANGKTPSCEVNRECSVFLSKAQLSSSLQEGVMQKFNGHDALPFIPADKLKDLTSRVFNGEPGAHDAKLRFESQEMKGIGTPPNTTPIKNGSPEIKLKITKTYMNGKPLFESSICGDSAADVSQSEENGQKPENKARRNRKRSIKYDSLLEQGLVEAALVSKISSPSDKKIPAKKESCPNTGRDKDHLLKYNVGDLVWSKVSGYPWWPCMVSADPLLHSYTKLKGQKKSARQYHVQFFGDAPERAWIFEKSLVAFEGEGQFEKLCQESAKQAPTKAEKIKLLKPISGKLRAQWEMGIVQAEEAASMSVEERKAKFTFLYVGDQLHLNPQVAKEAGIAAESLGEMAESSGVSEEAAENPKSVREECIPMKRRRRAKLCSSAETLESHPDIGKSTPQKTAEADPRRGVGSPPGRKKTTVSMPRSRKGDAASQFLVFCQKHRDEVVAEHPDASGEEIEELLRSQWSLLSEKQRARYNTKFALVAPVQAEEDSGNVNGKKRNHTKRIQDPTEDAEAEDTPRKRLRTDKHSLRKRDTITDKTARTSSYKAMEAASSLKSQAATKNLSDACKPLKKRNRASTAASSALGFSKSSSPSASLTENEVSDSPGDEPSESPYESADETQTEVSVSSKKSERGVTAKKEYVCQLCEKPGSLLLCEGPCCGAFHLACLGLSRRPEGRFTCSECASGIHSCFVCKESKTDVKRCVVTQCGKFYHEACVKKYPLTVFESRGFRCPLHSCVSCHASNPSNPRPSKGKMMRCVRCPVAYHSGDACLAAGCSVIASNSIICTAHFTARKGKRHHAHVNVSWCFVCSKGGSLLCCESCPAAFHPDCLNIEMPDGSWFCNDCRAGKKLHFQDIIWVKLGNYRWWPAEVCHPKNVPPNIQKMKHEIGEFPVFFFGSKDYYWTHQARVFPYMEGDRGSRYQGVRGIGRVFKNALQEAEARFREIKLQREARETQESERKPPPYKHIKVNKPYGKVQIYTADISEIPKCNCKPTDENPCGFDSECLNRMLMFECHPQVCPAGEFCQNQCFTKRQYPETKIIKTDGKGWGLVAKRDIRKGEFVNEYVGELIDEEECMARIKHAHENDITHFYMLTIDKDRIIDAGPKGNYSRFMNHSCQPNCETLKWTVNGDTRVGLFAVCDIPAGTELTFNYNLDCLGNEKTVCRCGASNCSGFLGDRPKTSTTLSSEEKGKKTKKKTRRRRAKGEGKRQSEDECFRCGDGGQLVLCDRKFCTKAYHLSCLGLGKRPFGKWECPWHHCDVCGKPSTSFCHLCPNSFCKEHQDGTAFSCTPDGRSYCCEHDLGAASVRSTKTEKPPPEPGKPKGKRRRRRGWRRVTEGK

Large T antigen = Large T antigen (Simian virus 40, UniProt P03070); format: functional, Betapolyomavirus macacae;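 further: Confirmatory-stage PubChem screen for compounds that inhibit SV40 T antigen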
Sequence of Large T antigen (P03070 whole entry): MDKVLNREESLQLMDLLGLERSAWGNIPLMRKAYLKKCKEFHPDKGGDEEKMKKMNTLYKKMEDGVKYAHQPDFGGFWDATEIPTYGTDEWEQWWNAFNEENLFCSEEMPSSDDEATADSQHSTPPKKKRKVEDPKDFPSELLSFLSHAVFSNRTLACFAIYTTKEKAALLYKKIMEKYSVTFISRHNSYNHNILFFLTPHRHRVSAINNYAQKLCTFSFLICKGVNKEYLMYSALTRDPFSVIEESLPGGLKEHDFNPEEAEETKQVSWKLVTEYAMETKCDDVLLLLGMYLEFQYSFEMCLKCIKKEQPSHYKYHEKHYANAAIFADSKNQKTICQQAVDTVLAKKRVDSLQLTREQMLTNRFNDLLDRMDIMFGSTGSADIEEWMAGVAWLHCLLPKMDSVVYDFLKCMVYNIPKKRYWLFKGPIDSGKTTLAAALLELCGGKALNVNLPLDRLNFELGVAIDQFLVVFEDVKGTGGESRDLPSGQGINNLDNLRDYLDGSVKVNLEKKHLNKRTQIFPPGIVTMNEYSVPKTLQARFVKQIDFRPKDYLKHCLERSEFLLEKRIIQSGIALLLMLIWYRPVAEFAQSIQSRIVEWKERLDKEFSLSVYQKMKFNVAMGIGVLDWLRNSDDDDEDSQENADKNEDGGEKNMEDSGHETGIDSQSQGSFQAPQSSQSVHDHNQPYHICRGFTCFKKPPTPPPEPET

[14] = biological target: T3, Heat shock factor protein 1 (Mus musculus, UniProt P38532); assay: enhancement of HSF1-driven luciferase signal – cell-based, NIH3T3, luminescence, dose retest, confirmation (AID 435004); format: functional;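 further: stress induced by proteasome inhibitor MG132 added 30 min after compound; luciferase reporter driven by HSF1 response element in NIH3T3 cells; actives raise luminescence as potentiators of the MG132 stress response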
T3 sequence (P38532 whole entry): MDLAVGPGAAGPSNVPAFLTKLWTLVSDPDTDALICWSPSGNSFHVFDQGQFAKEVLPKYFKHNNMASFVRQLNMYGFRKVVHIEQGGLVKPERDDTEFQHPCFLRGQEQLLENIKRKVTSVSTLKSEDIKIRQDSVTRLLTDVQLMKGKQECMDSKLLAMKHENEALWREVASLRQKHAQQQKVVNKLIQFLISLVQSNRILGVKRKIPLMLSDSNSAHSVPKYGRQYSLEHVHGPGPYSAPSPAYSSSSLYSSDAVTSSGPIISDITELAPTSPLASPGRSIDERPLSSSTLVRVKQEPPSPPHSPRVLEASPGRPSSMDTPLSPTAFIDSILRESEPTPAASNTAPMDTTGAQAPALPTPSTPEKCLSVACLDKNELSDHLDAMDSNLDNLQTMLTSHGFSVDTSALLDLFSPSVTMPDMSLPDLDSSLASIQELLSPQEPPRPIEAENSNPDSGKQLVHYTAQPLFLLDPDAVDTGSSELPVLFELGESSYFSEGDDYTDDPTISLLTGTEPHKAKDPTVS

[15] = biological target: T4, Sentrin-specific protease 8 (Homo sapiens, UniProt Q96LD8); format: functional
T4 sequence (Q96LD8 whole entry): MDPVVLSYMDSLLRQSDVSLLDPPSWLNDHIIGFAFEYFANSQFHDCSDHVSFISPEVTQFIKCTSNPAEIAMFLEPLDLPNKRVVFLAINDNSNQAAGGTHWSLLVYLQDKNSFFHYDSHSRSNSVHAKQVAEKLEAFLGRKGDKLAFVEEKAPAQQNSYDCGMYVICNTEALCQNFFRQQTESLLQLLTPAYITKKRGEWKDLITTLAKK

[16] = biological target: T5, Probable nicotinate-nucleotide adenylyltransferase (Staphylococcus aureus (strain N315), UniProt P65502); format: functional, Staphylococcus aureus subsp. aureus N315;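 on IC50 Mean: confirmatory dose-response retesting of NadD inhibitor hits first found in an ultra-high-throughput screen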
T5 sequence (P65502 whole entry): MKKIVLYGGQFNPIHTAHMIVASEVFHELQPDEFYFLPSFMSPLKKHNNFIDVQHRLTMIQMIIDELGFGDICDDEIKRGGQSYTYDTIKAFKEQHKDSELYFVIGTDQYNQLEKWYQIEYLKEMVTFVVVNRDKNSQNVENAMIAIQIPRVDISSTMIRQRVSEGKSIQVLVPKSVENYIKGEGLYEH

[17] = biological target: T5, Probable nicotinate-nucleotide adenylyltransferase; format: functional, Staphylococcus aureus subsp. aureus N315; conditions: read-out: IC50_Mean
[18] = biological target: T6, Apoptotic protease-activating factor 1 (Homo sapiens, UniProt O14727); format: functional
T6 sequence (O14727 whole entry): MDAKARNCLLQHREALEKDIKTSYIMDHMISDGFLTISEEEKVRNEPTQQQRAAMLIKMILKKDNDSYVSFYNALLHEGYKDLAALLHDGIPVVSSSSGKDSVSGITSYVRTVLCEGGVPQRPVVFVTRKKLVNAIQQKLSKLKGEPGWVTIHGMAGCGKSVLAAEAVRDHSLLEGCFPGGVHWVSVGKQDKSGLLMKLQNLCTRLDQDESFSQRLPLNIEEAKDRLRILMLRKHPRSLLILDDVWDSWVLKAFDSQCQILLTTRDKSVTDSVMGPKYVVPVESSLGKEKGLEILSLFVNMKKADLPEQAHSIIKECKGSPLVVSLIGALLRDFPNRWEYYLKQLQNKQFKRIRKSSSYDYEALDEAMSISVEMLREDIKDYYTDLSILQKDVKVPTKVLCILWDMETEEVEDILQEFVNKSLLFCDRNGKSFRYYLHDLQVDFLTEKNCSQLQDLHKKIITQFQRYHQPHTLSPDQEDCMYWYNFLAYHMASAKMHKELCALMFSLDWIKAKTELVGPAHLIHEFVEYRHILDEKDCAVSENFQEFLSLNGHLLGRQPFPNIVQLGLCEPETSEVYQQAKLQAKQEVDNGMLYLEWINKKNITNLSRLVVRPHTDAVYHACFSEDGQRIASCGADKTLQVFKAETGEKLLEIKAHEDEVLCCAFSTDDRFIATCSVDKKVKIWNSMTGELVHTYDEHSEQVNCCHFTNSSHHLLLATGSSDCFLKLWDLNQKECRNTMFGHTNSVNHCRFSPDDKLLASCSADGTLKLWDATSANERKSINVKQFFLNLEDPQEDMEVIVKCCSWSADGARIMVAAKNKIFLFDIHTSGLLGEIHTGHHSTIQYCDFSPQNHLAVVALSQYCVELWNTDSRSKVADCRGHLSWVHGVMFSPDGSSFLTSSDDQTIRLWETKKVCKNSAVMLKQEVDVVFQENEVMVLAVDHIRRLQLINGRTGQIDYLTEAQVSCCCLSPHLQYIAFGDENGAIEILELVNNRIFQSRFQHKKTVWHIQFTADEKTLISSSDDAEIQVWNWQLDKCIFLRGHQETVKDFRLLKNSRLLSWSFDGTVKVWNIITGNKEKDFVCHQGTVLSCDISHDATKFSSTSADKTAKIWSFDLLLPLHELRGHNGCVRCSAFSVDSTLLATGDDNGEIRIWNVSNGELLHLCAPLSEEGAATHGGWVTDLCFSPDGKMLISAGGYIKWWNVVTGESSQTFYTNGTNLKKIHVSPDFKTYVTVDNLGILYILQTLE

[19] = biological target: T4, Sentrin-specific protease 8; format: functional; remark: listed apart in the source
Fatty acid synthase [20] = biological target: T7, Fatty acid synthase (Homo sapiens, UniProt P49327); assay: inhibition of human FAS-TE enzyme activity – biochemical, endpoint fluorescence intensity, uHTS hits, dose response (AID 624327); format: functional;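 further: fluorescence from hydrolysis of an O-methyl fluorescein acyl ester substrate by the enzyme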
T7 sequence (P49327 whole entry): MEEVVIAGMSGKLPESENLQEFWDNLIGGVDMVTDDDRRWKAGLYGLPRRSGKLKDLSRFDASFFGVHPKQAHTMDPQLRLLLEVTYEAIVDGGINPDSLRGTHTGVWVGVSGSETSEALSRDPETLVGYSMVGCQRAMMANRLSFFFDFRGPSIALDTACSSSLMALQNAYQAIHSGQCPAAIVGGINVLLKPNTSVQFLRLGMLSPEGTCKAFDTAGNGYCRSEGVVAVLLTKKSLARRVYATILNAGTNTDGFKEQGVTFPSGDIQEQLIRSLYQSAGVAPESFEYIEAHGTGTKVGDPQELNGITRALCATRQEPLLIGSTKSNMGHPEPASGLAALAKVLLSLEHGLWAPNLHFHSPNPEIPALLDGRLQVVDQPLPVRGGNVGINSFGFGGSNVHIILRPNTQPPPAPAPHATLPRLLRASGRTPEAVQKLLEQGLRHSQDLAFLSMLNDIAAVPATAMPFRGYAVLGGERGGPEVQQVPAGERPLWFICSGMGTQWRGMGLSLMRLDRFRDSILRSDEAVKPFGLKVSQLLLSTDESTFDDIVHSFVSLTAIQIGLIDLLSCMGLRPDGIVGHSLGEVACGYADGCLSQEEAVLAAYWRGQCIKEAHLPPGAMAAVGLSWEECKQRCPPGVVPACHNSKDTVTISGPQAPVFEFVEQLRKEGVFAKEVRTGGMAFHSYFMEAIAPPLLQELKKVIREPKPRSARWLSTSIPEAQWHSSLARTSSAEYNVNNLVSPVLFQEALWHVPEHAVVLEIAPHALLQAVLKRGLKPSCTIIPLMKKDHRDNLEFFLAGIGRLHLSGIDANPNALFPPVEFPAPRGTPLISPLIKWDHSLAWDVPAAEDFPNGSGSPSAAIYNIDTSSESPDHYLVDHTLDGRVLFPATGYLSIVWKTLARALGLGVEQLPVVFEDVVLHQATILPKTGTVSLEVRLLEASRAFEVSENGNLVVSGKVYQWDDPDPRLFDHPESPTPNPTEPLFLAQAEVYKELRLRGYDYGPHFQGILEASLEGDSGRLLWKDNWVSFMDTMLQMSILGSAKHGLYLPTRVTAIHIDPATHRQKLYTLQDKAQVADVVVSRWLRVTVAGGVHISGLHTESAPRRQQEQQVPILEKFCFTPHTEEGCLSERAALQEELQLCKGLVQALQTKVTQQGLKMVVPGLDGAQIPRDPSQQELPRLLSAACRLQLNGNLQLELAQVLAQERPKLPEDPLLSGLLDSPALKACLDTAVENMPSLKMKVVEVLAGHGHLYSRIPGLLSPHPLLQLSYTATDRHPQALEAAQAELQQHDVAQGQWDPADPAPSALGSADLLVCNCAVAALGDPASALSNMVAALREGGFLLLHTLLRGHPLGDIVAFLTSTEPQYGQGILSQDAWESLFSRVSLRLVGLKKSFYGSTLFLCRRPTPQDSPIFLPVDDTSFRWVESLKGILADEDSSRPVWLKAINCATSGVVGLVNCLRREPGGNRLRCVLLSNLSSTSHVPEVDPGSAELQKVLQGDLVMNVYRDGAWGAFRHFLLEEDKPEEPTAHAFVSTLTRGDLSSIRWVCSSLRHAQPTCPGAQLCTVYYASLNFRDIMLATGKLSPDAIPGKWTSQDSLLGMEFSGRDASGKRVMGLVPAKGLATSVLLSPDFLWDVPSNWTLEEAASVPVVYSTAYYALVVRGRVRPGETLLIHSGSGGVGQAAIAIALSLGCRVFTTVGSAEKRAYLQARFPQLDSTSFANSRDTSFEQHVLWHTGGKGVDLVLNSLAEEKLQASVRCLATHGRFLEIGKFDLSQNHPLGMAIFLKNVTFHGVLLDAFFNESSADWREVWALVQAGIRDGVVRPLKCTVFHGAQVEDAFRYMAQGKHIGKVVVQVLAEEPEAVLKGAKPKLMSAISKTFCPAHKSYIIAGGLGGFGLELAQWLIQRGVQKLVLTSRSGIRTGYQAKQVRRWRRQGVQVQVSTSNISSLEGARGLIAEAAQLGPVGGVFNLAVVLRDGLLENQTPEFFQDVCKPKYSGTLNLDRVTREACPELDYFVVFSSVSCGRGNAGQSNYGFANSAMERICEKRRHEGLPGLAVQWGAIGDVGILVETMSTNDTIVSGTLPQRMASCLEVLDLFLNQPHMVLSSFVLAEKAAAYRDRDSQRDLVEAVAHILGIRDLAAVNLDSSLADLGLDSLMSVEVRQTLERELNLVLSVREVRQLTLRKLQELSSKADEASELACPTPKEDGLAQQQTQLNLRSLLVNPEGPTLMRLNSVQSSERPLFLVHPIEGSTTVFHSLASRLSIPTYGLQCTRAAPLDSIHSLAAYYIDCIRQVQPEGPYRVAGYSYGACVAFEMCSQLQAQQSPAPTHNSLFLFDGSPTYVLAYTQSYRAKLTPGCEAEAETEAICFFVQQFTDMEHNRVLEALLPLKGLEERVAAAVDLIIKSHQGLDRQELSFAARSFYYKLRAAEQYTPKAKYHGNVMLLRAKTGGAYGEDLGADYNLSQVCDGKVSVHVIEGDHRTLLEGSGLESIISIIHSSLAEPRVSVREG

Fatty acid synthase [21] = biological target: T7, Fatty acid synthase; assay: inhibition of human FAS-TE enzyme activity – biochemical, kinetic fluorescence intensity, dose response (AID 624326); format: functional;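 further: rate of fluorescence rise from hydrolysis of a fluorogenic O-methyl fluorescein ester substrate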

With O=S1(=O)CCN(c2ccccc2CC(c2c[nH]c3ccccc23)c2c[nH]c3ccccc23)CC1 the AC50 [1] was < 0.26 µM (active), the AC50 [2] was 0.555 µM (active) and the AC50 [3] was < 0.26 µM (active). The AC50 [4] was 24.6 µM (active), the AC50 (Cytochrome P450 3A4) was 2.51 µM (inconclusive) and the AC50 [5] was 1.06 µM (active).
For C[C@@H]1CN([C@@H](C)CO)C(=O)CCCn2nncc2CO[C@H]1CN(C)S(=O)(=O)c1ccc(Cl)cc1, the AC50 [6] was < 1 µM (active).
In the case of O=C(CSc1nnc(NC(=O)c2ccccc2F)s1)NCc1ccc(F)cc1, the IC50 (Beta-lactamase [7]) is reported as > 59.6 µM (inactive), the IC50 (Beta-lactamase [8]) is reported as > 59.6 µM (inactive) and the IC50 (Beta-lactamase [9]) is reported as > 59.6 µM (inactive).
With CCCCCCN[C@H]1CCC2C3CC=C4C[C@@H](O)CC[C@]4(C)C3CC[C@@]21C (some centres undefined) the EC50 [10] was > 91.2 µM (inactive) and the EC50 [11] was > 91.2 µM (inactive).
With C[C@H](CO)N1C[C@H](C)[C@@H](CN(C)Cc2ccc(Cl)c(Cl)c2)Oc2ccc(NS(=O)(=O)c3ccc(F)cc3)cc2CC1=O the AC50 [12] was 10.6 µM (active).
With NC(CCc1ccccc1)c1csc(Nc2ccccn2)n1 (centres undefined) the AC50 [1] was 6.61 µM (active), the AC50 [2] was 3.22 µM (active) and the AC50 [3] was 7.52 µM (active). The AC50 [4] was 38.1 µM (active) and the AC50 [5] was 22.6 µM (active).
In the case of Cc1c(CC(=O)N2CCN(C(=O)C3COc4ccccc4O3)CC2)c(=O)oc2c(O)c(O)ccc12 (centres undefined), the IC50 (Albumin) is reported as > 94.1 µM (inactive), the AC50 [13] is reported as 3.53 µM (active) and the IC50 (Large T antigen) is reported as 2.43 µM (active).
With Cc1ccc(S(=O)(=O)Nc2ccc3c(c2)CC(=O)N([C@@H](C)CO)C[C@@H](C)[C@@H](CN(C)S(=O)(=O)c2ccc(Cl)cc2)O3)cc1 the AC50 [12] was 35 µM (active).
With COc1cc(Br)cc2cc(C(=O)N3CCN(C(=O)c4ccco4)CC3)c(=O)oc12 the IC50 (Albumin) was > 94.1 µM (inactive).
With CCCc1cc(=O)oc2c3c(cc(OCC(=O)N[C@@H](C)C(=O)O)c12)OC(C)(C)CC3 the IC50 (Beta-lactamase [7]) was > 59.6 µM (inactive), the IC50 (Beta-lactamase [8]) was > 59.6 µM (inactive) and the IC50 (Beta-lactamase [9]) was > 59.6 µM (inactive). For the same compound, the EC50 [14] was > 260 µM (inactive).
With Cc1nn(-c2ccc(Cl)cc2)c(O)c1C(c1ccccc1O)c1c(C)[nH]n(-c2ccc(Cl)cc2)c1=O (centres undefined) the IC50 [15] was 8.38 µM (active), the IC50 [16] was 6.68 µM (active) and the IC50 [17] was 21.1 µM (active). For the same compound, the IC50 [18] was 13.3 µM (active) and the IC50 [19] was 32.9 µM (active).
With COc1ccc(/C=N\NC(=O)CNC(=O)C(c2ccccc2)c2ccccc2)cc1[N+](=O)[O-] the IC50 (Fatty acid synthase [20]) was 16.6 µM (active) and the IC50 (Fatty acid synthase [21]) was 12.3 µM (active).
